Three molecules from patent publication US10221165B2, “Flavone based EGFR inhibitors and process for preparation thereof” (Council of Scientific and Industrial Research, priority 2015, dated 2019) can be followed below.

The term viability denotes a read-out of living cells in per cent, often relative to untreated cells. A lower viability goes with a greater loss of cells. Usually logP stands for the decadic logarithm of the partition coefficient of the neutral form, usually between octanol and water. Higher therefore signals higher lipophilicity. Broadly, the melting point is the temperature, or range, at which the solid turns liquid.

For the first data set, the system named is A549 Cell line (Lung Cancer Cell line). The experiment in a line: Cell proliferation assay (MTT), in-vitro anticancer activity against A549 cell line. The data set is classed as cell-based. Conditions: Homo sapiens, A549, 0.01 μM, 72 h. The procedure: (§1) Each cell line was plated in 96-well microtiter plates (10,000 cells per well), and serial dilutions of indicated compounds were added. At the end of the incubation period (72 h at 37° C.), cell viability was determined by a tetrazolium dye, MTT (3-(4,5-dimethylthiazol-2-yl)-2,5-diphenyl tetrazolium bromide) (Promega, USA). The formazan crystals were dissolved in DMSO, and the absorbance at 600 nm was recorded using an ELISA plate reader. IC50 values were calculated using nonlinear regression and defined as the concentration needed for a 50% reduction in absorbance of treated versus untreated control cells.
In-Vitro Anticancer Activity Against A549 Cell Line (Lung Cancer Cell Line) (Adenocarcinomic Human Alveolar Basal Epithelial Cells)
Molecule `COc1ccc2oc(-c3sc(Nc4ccc(C)cc4)nc3N)cc(=O)c2c1` [Compound S1-M10, 2-(2-(p-tolylamino)-4-aminothiazol-5-yl)-6-methoxy-4H-chromen-4-one] yielded a viability at 0.01 µM of 96.9%.
`COc1ccc2oc(-c3sc(Nc4ccccc4C)nc3N)cc(=O)c2c1` [Compound S1-M11, 2-(2-(o-tolylamino)-4-aminothiazol-5-yl)-6-methoxy-4H-chromen-4-one] registered a viability at 0.01 µM of 99.8%.
In turn, `COc1cc2ncnc(Nc3ccc(F)c(Cl)c3)c2cc1OCCCN1CCOCC1` [Gefitinib, gefitinib, reference compound] returned a viability at 0.01 µM of 55.2%.

The data set is the same for the next values; noted with them: Homo sapiens, A549, 0.1 μM, 72 h.
On to `COc1ccc2oc(-c3sc(Nc4ccc(C)cc4)nc3N)cc(=O)c2c1` [Compound S1-M10, 2-(2-(p-tolylamino)-4-aminothiazol-5-yl)-6-methoxy-4H-chromen-4-one], for which the viability at 0.1 µM turned out to be 93%.
As for `COc1ccc2oc(-c3sc(Nc4ccccc4C)nc3N)cc(=O)c2c1` [Compound S1-M11, 2-(2-(o-tolylamino)-4-aminothiazol-5-yl)-6-methoxy-4H-chromen-4-one], the viability at 0.1 µM came to 93.7%.
On to `COc1cc2ncnc(Nc3ccc(F)c(Cl)c3)c2cc1OCCCN1CCOCC1` [Gefitinib, gefitinib, reference compound], for which the viability at 0.1 µM is 43.7%.

The data set is the same for the next values; noted with them: Homo sapiens, A549, 2.5 μM, 72 h.
Molecule `COc1ccc2oc(-c3sc(Nc4ccc(C)cc4)nc3N)cc(=O)c2c1` [Compound S1-M10, 2-(2-(p-tolylamino)-4-aminothiazol-5-yl)-6-methoxy-4H-chromen-4-one] came in with a viability at 2.5 µM of 86.4%.
With `COc1ccc2oc(-c3sc(Nc4ccccc4C)nc3N)cc(=O)c2c1` [Compound S1-M11, 2-(2-(o-tolylamino)-4-aminothiazol-5-yl)-6-methoxy-4H-chromen-4-one], the viability at 2.5 µM amounted to 84.8%.
Molecule `COc1cc2ncnc(Nc3ccc(F)c(Cl)c3)c2cc1OCCCN1CCOCC1` [Gefitinib, gefitinib, reference compound] showed a viability at 2.5 µM of 35.3%.

The data set is the same for the next values; noted with them: Homo sapiens, A549, 5 μM, 72 h.
On to `COc1ccc2oc(-c3sc(Nc4ccc(C)cc4)nc3N)cc(=O)c2c1` [Compound S1-M10, 2-(2-(p-tolylamino)-4-aminothiazol-5-yl)-6-methoxy-4H-chromen-4-one], for which the viability at 5 µM worked out at 76.4%.
Take `COc1ccc2oc(-c3sc(Nc4ccccc4C)nc3N)cc(=O)c2c1` [Compound S1-M11, 2-(2-(o-tolylamino)-4-aminothiazol-5-yl)-6-methoxy-4H-chromen-4-one]: the viability at 5 µM came out at 72.8%.
`COc1cc2ncnc(Nc3ccc(F)c(Cl)c3)c2cc1OCCCN1CCOCC1` [Gefitinib, gefitinib, reference compound] showed a viability at 5 µM of 29.3%.

Still in this data set, the particulars now being: Homo sapiens, A549, 10 μM, 72 h.
For `COc1ccc2oc(-c3sc(Nc4ccc(C)cc4)nc3N)cc(=O)c2c1` [Compound S1-M10, 2-(2-(p-tolylamino)-4-aminothiazol-5-yl)-6-methoxy-4H-chromen-4-one], the viability at 10 µM amounted to 66.4%.
In turn, `COc1ccc2oc(-c3sc(Nc4ccccc4C)nc3N)cc(=O)c2c1` [Compound S1-M11, 2-(2-(o-tolylamino)-4-aminothiazol-5-yl)-6-methoxy-4H-chromen-4-one] registered a viability at 10 µM of 62.8%.
Molecule `COc1cc2ncnc(Nc3ccc(F)c(Cl)c3)c2cc1OCCCN1CCOCC1` [Gefitinib, gefitinib, reference compound] returned a viability at 10 µM of 20.3%.

Test system in another data set: not listed separately
The experiment in a line: Log P (Table 4). The format is physicochemical. The conditions noted are these: method not stated.
In the case of `COc1ccc2oc(-c3sc(Nc4ccc(C)cc4)nc3N)cc(=O)c2c1` [Compound S1-M10, 2-(2-(p-tolylamino)-4-aminothiazol-5-yl)-6-methoxy-4H-chromen-4-one], the logP came out at 3.99.
`COc1ccc2oc(-c3sc(Nc4ccccc4C)nc3N)cc(=O)c2c1` [Compound S1-M11, 2-(2-(o-tolylamino)-4-aminothiazol-5-yl)-6-methoxy-4H-chromen-4-one] displayed a logP of 2.11.

Test system in the next data set: not given
Experiment: not given
Conditions: not given
`COc1ccc2oc(-c3sc(Nc4ccc(C)cc4)nc3N)cc(=O)c2c1` [Compound S1-M10, 2-(2-(p-tolylamino)-4-aminothiazol-5-yl)-6-methoxy-4H-chromen-4-one] displayed a melting point of 280 to 282 °C.
Take `COc1ccc2oc(-c3sc(Nc4ccccc4C)nc3N)cc(=O)c2c1` [Compound S1-M11, 2-(2-(o-tolylamino)-4-aminothiazol-5-yl)-6-methoxy-4H-chromen-4-one]: the melting point was 288 to 290 °C.

Another data set has as its system U87MG Cell line (glioblastoma cell line). The experiment in a line: Cell proliferation assay (MTT), in-vitro anticancer activity against U87MG cell line. The format is cell-based. The conditions noted are these: Homo sapiens, U-87 MG, 0.01 μM, 72 h. The method, then: as §1
In-Vitro Anticancer Activity Against U87MG Cell Line (Glioblastoma Cell Line)
For `COc1ccc2oc(-c3sc(Nc4ccc(C)cc4)nc3N)cc(=O)c2c1` [Compound S1-M10, 2-(2-(p-tolylamino)-4-aminothiazol-5-yl)-6-methoxy-4H-chromen-4-one], the viability at 0.01 µM is 87.9%.
`COc1ccc2oc(-c3sc(Nc4ccccc4C)nc3N)cc(=O)c2c1` [Compound S1-M11, 2-(2-(o-tolylamino)-4-aminothiazol-5-yl)-6-methoxy-4H-chromen-4-one]: the viability at 0.01 µM is 83.8%.
For `COc1cc2ncnc(Nc3ccc(F)c(Cl)c3)c2cc1OCCCN1CCOCC1` [Gefitinib, gefitinib, reference compound], the viability at 0.01 µM was determined as 55.2%.

The data set is the same for the next values; noted with them: Homo sapiens, U-87 MG, 0.1 μM, 72 h.
In turn, `COc1ccc2oc(-c3sc(Nc4ccc(C)cc4)nc3N)cc(=O)c2c1` [Compound S1-M10, 2-(2-(p-tolylamino)-4-aminothiazol-5-yl)-6-methoxy-4H-chromen-4-one] registered a viability at 0.1 µM of 78%.
Turning to `COc1ccc2oc(-c3sc(Nc4ccccc4C)nc3N)cc(=O)c2c1` [Compound S1-M11, 2-(2-(o-tolylamino)-4-aminothiazol-5-yl)-6-methoxy-4H-chromen-4-one], the viability at 0.1 µM turned out to be 75.7%.
`COc1cc2ncnc(Nc3ccc(F)c(Cl)c3)c2cc1OCCCN1CCOCC1` [Gefitinib, gefitinib, reference compound] displayed a viability at 0.1 µM of 43.7%.

Staying with this data set, now noted: Homo sapiens, U-87 MG, 2.5 μM, 72 h.
For `COc1ccc2oc(-c3sc(Nc4ccc(C)cc4)nc3N)cc(=O)c2c1` [Compound S1-M10, 2-(2-(p-tolylamino)-4-aminothiazol-5-yl)-6-methoxy-4H-chromen-4-one], the viability at 2.5 µM came to 69.4%.
The molecule `COc1ccc2oc(-c3sc(Nc4ccccc4C)nc3N)cc(=O)c2c1` [Compound S1-M11, 2-(2-(o-tolylamino)-4-aminothiazol-5-yl)-6-methoxy-4H-chromen-4-one] yielded a viability at 2.5 µM of 67.2%.
The molecule `COc1cc2ncnc(Nc3ccc(F)c(Cl)c3)c2cc1OCCCN1CCOCC1` [Gefitinib, gefitinib, reference compound] registered a viability at 2.5 µM of 35.3%.

The data set is the same for the next values; noted with them: Homo sapiens, U-87 MG, 5 μM, 72 h.
With `COc1ccc2oc(-c3sc(Nc4ccc(C)cc4)nc3N)cc(=O)c2c1` [Compound S1-M10, 2-(2-(p-tolylamino)-4-aminothiazol-5-yl)-6-methoxy-4H-chromen-4-one], the viability at 5 µM worked out at 59.4%.
In the case of `COc1ccc2oc(-c3sc(Nc4ccccc4C)nc3N)cc(=O)c2c1` [Compound S1-M11, 2-(2-(o-tolylamino)-4-aminothiazol-5-yl)-6-methoxy-4H-chromen-4-one], the viability at 5 µM came out at 58.8%.
With `COc1cc2ncnc(Nc3ccc(F)c(Cl)c3)c2cc1OCCCN1CCOCC1` [Gefitinib, gefitinib, reference compound], the viability at 5 µM turned out to be 29.3%.

Staying with this data set, now noted: Homo sapiens, U-87 MG, 10 μM, 72 h.
As for `COc1ccc2oc(-c3sc(Nc4ccc(C)cc4)nc3N)cc(=O)c2c1` [Compound S1-M10, 2-(2-(p-tolylamino)-4-aminothiazol-5-yl)-6-methoxy-4H-chromen-4-one], the viability at 10 µM amounted to 50.4%.
Regarding `COc1ccc2oc(-c3sc(Nc4ccccc4C)nc3N)cc(=O)c2c1` [Compound S1-M11, 2-(2-(o-tolylamino)-4-aminothiazol-5-yl)-6-methoxy-4H-chromen-4-one], the viability at 10 µM stood at 49.8%.
In the case of `COc1cc2ncnc(Nc3ccc(F)c(Cl)c3)c2cc1OCCCN1CCOCC1` [Gefitinib, gefitinib, reference compound], the viability at 10 µM came out at 20.3%.
